According to US20240269139A1, “COMPOUNDS FOR TARGETED PROTEIN DEGRADATION OF KINASES” (DANA-FARBER CANCER INSTITUTE, INC., priority 2020, published 2024):
Read-outs that look alike come from different tables or passages of the source.

Tests used:
Type in all cases: cell-based
[1] = tested on: protein kinases (human kinome); settings: for logFC of SRC: Accession P12931-2; for logFC LCK: accession P06239-3; for logFC LCK / logFC LCK (P06239-3): direction of change down
[2] = molecular target: protein kinases (human kinome) (Homo sapiens, UniProt P51451); settings: for logFC BLK: BLK (P51451), direction down; for logFC of BLK (P51451): down
Sequence of protein kinases (human kinome) (Homo sapiens, UniProt P51451) (P51451 whole entry): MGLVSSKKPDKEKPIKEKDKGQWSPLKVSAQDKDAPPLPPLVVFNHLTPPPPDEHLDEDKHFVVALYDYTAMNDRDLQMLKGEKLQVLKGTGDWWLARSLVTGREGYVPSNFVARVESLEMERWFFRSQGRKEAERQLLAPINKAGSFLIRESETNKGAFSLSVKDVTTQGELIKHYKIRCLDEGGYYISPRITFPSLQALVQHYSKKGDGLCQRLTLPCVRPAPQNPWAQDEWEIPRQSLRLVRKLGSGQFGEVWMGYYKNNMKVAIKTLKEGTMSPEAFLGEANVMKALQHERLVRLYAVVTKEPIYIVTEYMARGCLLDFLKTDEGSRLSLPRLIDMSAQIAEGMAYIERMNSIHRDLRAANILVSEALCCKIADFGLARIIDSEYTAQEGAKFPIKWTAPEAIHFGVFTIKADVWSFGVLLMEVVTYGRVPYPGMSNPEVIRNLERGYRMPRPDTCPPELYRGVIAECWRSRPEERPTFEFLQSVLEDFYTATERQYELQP

[3] = molecular target: protein kinases (human kinome) (Homo sapiens, UniProt P11802)
Sequence of protein kinases (human kinome) (Homo sapiens, UniProt P11802) (P11802 whole entry): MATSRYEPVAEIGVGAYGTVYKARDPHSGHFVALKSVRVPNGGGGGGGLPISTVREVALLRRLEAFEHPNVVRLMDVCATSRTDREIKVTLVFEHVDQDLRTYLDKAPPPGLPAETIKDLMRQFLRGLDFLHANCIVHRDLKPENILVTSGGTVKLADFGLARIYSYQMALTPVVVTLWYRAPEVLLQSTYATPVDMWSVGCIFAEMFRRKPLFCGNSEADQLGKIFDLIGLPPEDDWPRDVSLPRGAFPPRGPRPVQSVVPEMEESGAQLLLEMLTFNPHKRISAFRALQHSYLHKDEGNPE

[4] = molecular target: T1, protein kinases (human kinome) (Homo sapiens, UniProt O75385); settings: ULK1 O75385
T1 sequence (O75385 1-1050): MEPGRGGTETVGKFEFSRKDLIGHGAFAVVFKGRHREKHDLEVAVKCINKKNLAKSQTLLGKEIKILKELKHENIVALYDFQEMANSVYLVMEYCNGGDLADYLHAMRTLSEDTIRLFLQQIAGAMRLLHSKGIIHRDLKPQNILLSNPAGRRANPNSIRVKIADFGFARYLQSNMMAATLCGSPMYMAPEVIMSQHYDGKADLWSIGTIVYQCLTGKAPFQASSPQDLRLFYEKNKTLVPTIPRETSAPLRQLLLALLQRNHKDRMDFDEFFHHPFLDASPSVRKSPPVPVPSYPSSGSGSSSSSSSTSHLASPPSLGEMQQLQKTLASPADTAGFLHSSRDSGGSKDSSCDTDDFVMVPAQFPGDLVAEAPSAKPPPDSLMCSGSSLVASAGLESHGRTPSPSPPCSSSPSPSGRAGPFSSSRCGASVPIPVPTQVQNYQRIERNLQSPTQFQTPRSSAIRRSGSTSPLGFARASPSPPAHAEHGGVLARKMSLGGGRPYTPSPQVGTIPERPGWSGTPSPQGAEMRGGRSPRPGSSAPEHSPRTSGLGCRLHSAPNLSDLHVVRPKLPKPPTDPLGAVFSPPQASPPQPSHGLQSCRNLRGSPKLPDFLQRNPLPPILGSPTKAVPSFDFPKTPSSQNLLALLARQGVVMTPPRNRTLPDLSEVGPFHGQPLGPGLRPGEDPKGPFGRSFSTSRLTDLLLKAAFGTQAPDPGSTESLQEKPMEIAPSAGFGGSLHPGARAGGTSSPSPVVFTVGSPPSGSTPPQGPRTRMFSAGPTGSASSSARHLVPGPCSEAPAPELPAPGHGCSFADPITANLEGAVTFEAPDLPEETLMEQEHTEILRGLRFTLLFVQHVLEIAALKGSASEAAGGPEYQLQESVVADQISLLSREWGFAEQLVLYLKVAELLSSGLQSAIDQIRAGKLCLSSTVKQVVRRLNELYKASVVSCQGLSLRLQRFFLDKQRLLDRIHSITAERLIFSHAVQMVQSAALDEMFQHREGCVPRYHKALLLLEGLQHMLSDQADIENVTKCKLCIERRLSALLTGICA

[5] = molecular target: protein kinases (human kinome) (Homo sapiens, UniProt P53671); settings: for logFC LIMK2: LIMK2 (P53671), down; for logFC of LIMK2: LIMK2 P53671
Sequence of protein kinases (human kinome) (Homo sapiens, UniProt P53671) (P53671 whole entry): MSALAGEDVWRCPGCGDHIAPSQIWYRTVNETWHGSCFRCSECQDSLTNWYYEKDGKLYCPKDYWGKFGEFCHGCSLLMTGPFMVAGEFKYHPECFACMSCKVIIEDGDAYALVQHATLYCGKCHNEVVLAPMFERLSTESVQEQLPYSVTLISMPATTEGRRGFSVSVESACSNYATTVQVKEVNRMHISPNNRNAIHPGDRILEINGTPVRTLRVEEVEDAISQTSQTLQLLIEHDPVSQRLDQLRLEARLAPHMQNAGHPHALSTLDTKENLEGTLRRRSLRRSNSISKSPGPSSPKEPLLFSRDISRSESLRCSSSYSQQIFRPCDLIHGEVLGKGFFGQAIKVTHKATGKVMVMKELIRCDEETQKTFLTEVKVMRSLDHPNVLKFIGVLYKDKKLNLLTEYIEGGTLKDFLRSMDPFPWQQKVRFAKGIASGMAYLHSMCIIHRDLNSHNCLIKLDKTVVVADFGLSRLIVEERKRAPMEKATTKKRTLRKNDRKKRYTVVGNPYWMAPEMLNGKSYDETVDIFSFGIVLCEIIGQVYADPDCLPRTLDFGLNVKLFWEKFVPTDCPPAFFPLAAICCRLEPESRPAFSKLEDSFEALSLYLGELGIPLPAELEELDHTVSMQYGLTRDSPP

[6] = molecular target: protein kinases (human kinome) (Homo sapiens, UniProt Q00534); settings: for logFC CDK6: CDK6 (Q00534), direction down; for logFC of CDK6 (Q00534): down
Sequence of protein kinases (human kinome) (Homo sapiens, UniProt Q00534) (Q00534 whole entry): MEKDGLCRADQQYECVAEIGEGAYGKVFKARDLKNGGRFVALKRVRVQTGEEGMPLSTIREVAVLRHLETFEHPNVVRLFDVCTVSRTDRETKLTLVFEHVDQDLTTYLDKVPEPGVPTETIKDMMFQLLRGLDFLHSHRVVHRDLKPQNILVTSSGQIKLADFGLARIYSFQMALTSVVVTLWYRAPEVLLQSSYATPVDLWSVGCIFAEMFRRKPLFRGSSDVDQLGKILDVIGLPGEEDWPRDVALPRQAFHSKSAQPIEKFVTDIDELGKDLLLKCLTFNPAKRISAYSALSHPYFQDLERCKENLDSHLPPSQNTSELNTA

[7] = AURKB Q96GD4-5, experiment wp131
[8] = AURKB Q96GD4-5, experiment wp137

Q: What does the source list for CC(C)S(=O)(=O)c1ccccc1Nc1nc(Nc2ccc(N3CCN(CCOCCOCCNC(=O)CNc4cccc5c4C(=O)N(C4CCC(=O)NC4=O)C5=O)CC3)cc2)ncc1Cl (stereo not shown) [TL12.186]?
A: logFC [1, 7]: −0.9938; logFC AURKB [1, 7]: −0.9938; logFC [1, 8]: −0.9711; logFC AURKB [1, 8]: −0.9711; logFC BUB1B ([1]; Accession O60566-3, experiment wp131, direction down): −0.541; logFC BUB1B ([1]; Accession O60566-3, experiment wp137, direction down): −0.5516; logFC of SRC ([1]; experiment wp016): −0.3573; logFC of SRC ([1]; experiment wp131): −0.7777; logFC of SRC ([1]; experiment wp137): −0.5738; logFC CSNK1D ([1]; Accession P48730-2, experiment wp137, direction down): −0.4721; logFC of CDK17 ([1]; Accession Q00537-2, experiment wp137): −0.7026; logFC BUB1B ([1]; BUB1B (O60566-3), experiment wp131): −0.541; logFC BUB1B ([1]; BUB1B (O60566-3), experiment wp137): −0.5516; logFC CSNK1D ([1]; CSNK1D P48730-2, experiment wp137): −0.4721; logFC PRKAA1 (Q13131-2) ([1]; Experiment wp016, direction down): −0.434; logFC PRKAA1 (Q13131-2) ([1]; Experiment wp131, direction down): −0.5988; logFC PRKAA1 (Q13131-2) ([1]; Experiment wp137, direction down): −0.641; logFC LCK ([1]; experiment wp016): −0.7129; logFC LCK ([1]; experiment wp131): −1.455; logFC LCK ([1]; experiment wp137): −1.373; logFC ([1]; MARK2 Q7KZI7-14, experiment wp131): −0.4868; logFC ([1]; PIP5K1A (Q99755-3), experiment wp131): −0.3436; logFC ([1]; PIP5K1A (Q99755-3), experiment wp137): −0.4526; logFC RPS6KA1 ([1]; RPS6KA1 (Q15418-2), experiment wp137): −0.4514; logFC CDK9 (P50750-2) ([1]; experiment wp016): −0.6414; logFC PRKAA1 (Q13131-2) ([1]; experiment wp016): −0.434; logFC LCK (P06239-3) ([1]; experiment wp016): −0.7129; logFC ABL2 (P42684-5) ([1]; experiment wp131): −0.8023; logFC CDK9 (P50750-2) ([1]; experiment wp131): −1.451; logFC PRKAA1 (Q13131-2) ([1]; experiment wp131): −0.5988; logFC of ABL2 (P42684-5) ([1]; experiment wp131): −0.8023; logFC of MARK2 (Q7KZI7-14) ([1]; experiment wp131): −0.4868; logFC LCK (P06239-3) ([1]; experiment wp131): −1.455; logFC CDK9 (P50750-2) ([1]; experiment wp137): −1.511; logFC PRKAA1 (Q13131-2) ([1]; experiment wp137): −0.641; logFC RPS6KA1 (Q15418-2) ([1]; experiment wp137): −0.4514; logFC of CDK17 (Q00537-2) ([1]; experiment wp137): −0.7026; logFC LCK (P06239-3) ([1]; experiment wp137): −1.373; logFC BLK ([2]; experiment wp131): −2.497; logFC BLK ([2]; experiment wp137): −2.115; logFC of BLK ([2]; BLK P51451, experiment wp016): −1.475; logFC of BLK (P51451) ([2]; Experiment wp016): −1.475; logFC of BLK (P51451) ([2]; Experiment wp131): −2.497; logFC of BLK (P51451) ([2]; Experiment wp137): −2.115; logFC CDK4 (P11802) ([3]; experiment wp016): −0.9166; logFC CDK4 (P11802) ([3]; experiment wp131): −1.186; logFC CDK4 (P11802) ([3]; experiment wp137): −1.173; logFC ULK1 ([4]; experiment wp131): −3.01; logFC ULK1 ([4]; experiment wp137): −2.237; logFC LIMK2 ([5]; experiment wp016): −0.7395; logFC LIMK2 ([5]; experiment wp131): −1.323; logFC LIMK2 ([5]; experiment wp137): −1.179; logFC of LIMK2 ([5]; experiment wp016): −0.7395; logFC of LIMK2 ([5]; experiment wp131): −1.323; logFC of LIMK2 ([5]; experiment wp137): −1.179; logFC CDK6 ([6]; experiment wp016): −0.5831; logFC CDK6 ([6]; experiment wp131): −0.9892; logFC CDK6 ([6]; experiment wp137): −0.8724; logFC of CDK6 (Q00534) ([6]; Experiment wp016): −0.5831; logFC of CDK6 (Q00534) ([6]; Experiment wp131): −0.9892; logFC of CDK6 (Q00534) ([6]; Experiment wp137): −0.8724
